Molecular target: T1, LRRK2 (Homo sapiens, UniProt Q5S007, G2019S)
T1 construct: purchased Invitrogen PV4882 (lot 567054A)
Experiment: In Vitro LRRK2 Assay (LabChip 3000, fluorescently-labeled peptide substrate, ATP)
Type: biochemical
Details: read-out: LRRK2 Ki (KI), Table 8
In short: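 LRRK2, fluorescent peptide substrate (diluted to 4 μM before mixing), ATP and compound were incubated 2 h in the dark, then stopped. Phosphorylated and unphosphorylated peptide were separated by capillary electrophoresis and quantified by fluorescence. Ki was fitted with a tight-binding equation including enzyme concentration, S and Km; IC50 or percent inhibition were also reported.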

T1 sequence (Q5S007 whole entry G2019S): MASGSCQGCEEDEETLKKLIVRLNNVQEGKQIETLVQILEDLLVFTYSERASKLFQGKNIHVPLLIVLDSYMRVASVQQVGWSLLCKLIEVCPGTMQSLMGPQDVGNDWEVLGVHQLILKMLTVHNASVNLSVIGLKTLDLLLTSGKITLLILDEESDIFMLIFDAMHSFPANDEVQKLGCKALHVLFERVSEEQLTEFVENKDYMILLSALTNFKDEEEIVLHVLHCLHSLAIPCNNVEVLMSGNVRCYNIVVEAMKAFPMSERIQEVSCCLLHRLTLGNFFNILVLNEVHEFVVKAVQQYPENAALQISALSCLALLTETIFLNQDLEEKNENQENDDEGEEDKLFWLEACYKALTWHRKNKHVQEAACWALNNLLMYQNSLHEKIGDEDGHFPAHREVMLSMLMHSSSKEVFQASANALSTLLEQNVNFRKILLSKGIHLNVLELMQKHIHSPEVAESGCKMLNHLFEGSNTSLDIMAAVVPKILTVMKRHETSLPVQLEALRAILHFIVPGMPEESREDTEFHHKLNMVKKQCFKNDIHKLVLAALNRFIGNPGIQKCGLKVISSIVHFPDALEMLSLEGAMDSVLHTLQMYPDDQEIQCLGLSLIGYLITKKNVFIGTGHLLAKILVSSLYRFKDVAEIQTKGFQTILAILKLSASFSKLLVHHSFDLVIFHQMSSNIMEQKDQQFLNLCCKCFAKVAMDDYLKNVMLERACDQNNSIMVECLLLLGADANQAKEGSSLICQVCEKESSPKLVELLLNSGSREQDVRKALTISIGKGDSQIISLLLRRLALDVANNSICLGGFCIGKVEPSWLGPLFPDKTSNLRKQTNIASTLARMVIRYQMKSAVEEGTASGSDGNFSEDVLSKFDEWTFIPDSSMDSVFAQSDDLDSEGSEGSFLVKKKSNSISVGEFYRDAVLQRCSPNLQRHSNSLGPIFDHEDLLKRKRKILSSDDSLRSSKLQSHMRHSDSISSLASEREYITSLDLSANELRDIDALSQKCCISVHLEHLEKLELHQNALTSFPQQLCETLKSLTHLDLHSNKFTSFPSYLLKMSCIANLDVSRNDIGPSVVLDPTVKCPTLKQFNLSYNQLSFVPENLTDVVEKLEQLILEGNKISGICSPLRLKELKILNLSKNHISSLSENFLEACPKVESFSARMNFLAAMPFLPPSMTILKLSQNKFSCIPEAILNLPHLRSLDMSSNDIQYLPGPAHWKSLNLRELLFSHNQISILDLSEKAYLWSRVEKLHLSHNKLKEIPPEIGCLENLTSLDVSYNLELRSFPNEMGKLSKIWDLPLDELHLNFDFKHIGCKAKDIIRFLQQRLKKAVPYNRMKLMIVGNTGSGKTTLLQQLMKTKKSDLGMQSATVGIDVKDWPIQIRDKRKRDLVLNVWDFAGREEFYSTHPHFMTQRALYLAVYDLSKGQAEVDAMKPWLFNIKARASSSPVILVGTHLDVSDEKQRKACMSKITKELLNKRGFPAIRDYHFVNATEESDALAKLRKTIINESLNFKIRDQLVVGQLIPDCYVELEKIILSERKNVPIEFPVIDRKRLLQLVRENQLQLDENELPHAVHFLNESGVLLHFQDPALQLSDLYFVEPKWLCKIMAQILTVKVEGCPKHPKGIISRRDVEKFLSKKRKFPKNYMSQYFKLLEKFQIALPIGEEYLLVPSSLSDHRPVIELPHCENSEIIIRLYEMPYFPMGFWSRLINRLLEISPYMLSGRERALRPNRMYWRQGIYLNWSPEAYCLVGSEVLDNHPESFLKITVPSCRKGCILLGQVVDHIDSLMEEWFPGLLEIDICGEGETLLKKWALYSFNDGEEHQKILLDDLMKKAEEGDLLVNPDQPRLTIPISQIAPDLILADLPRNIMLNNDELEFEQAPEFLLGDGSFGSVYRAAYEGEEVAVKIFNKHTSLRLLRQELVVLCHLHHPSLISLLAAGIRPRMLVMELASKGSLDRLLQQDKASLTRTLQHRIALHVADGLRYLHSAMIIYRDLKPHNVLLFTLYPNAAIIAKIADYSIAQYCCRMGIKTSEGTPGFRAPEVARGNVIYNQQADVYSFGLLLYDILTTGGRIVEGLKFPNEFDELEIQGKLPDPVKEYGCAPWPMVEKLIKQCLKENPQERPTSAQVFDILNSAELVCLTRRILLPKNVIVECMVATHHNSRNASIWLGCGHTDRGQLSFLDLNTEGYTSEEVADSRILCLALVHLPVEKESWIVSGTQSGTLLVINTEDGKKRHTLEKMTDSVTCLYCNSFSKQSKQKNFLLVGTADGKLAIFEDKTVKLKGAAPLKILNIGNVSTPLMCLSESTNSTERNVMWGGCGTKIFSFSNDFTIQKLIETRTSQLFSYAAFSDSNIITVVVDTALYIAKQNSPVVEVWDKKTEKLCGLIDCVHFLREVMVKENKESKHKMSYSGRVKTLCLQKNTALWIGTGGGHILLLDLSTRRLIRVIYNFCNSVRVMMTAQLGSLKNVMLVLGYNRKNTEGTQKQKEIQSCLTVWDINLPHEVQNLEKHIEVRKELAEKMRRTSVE

Ki | Structure (SMILES)
8.1 nM | CNc1nc(Nc2cnn(S(=O)(=O)C(C)C)c2C)ncc1C(F)(F)F [Example 218, N2-(1-(isopropylsulfonyl)-5-methyl-1H-pyrazol-4-yl)-N4-methyl-5-(trifluoromethyl) pyrimidine-2,4-diamine]
6.7 nM | CCC(C)S(=O)(=O)n1ncc(Nc2ncc(C(F)(F)F)c(NC)n2)c1C (stereo not drawn) [Example 219, N2-(1-(sec-butylsulfonyl)-5-methyl-1H-pyrazol-4-yl)-N4-methyl-5-(trifluoromethyl) pyrimidine-2,4-diamine]
11.7 nM | CCC(C)S(=O)(=O)n1cc(Nc2ncc(C(F)(F)F)c(NC)n2)c(C)n1 (stereo not drawn) [Example 220, N2-(1-(sec-butylsulfonyl)-3-methyl-1H-pyrazol-4-yl)-N4-methyl-5-(trifluoromethyl) pyrimidine-2,4-diamine]
6.1 nM | CCNc1nc(Nc2cn(CC(C)(C)O)nc2C(C)C)ncc1C(F)(F)F [Example 221, 1-(4-(4-(ethylamino)-5-(trifluoromethyl)pyrimidin-2-ylamino)-3-isopropyl-1H-pyrazol-l-yl)-2-methylpropan-2-ol]
1.6 nM | CNc1nc(Nc2cn(C3CCN(C)CC3F)nc2C)ncc1C(F)(F)F (stereo not drawn) [Example 222, N2-(1-(3-fluoro-1-methylpiperidin-4-yl)-3-methyl-1H-pyrazol-4-yl)-N4-methyl-5-(trifluoromethyl) pyrimidine-2,4-diamine]
14 nM | CNc1nc(Nc2cnn(C)c2C(C)C)ncc1C(F)(F)F [Example 223, N2-(5-isopropyl-1-methyl-1H-pyrazol-4-yl)-N4-methyl-5-(trifluoromethyl) pyrimidine-2,4-diamine]
2.4 nM | CNc1nc(Nc2cn(C(C)c3ccccn3)nc2C)ncc1C(F)(F)F (stereo not drawn) [Example 224, N4-methyl-N2-(3-methyl-1-(1-(pyridin-2-yl)ethyl)-1H-pyrazol-4-yl)-5-(trifluoromethyl) pyrimidine-2,4-diamine]
3.8 nM | CNc1nc(Nc2cnn(C(C)c3ccccn3)c2C)ncc1C(F)(F)F (stereo not drawn) [Example 225, N4-methyl-N2-(5-methyl-1-(1-(pyridin-2-yl)ethyl)-1H-pyrazol-4-yl)-5-(trifluoromethyl) pyrimidine-2,4-diamine]
0.7 nM | CNc1nc(Nc2cnn(C3CCOCC3)c2Cl)ncc1C(F)(F)F [Example 226, N2-(5-chloro-1-(tetrahydro-2H-pyran-4-yl)-1H-pyrazol-4-yl)-N4-methyl-5-(trifluoromethyl) pyrimidine-2,4-diamine]
69 nM | CNc1nc(Nc2cn(C)nc2C(C)C)ncc1C(F)(F)F [Example 227, N2-(3-isopropyl-1-methyl-1H-pyrazol-4-yl)-N4-methyl-5-(trifluoromethyl) pyrimidine-2,4-diamine]
3.4 nM | CNc1nc(Nc2cn(C)nc2C2CCC2)ncc1C(F)(F)F [Example 228, N2-(3-cyclobutyl-1-methyl-1H-pyrazol-4-yl)-N4-methyl-5-(trifluoromethyl) pyrimidine-2,4-diamine]
11 nM | CNc1nc(Nc2cnn(C)c2C2CCC2)ncc1C(F)(F)F [Example 229, N2-(5-cyclobutyl-1-methyl-1H-pyrazol-4-yl)-N4-methyl-5-(trifluoromethyl) pyrimidine-2,4-diamine]
9.6 nM | CNc1nc(Nc2cn(C3CCCOC3)nc2C)ncc1C(F)(F)F (stereo not drawn) [Example 230, N4-methyl-N2-(3-methyl-1-(tetrahydro-2H-pyran-3-yl)-1H-pyrazol-4-yl)-5-(trifluoromethyl) pyrimidine-2,4-diamine]
1.8 nM | CNc1nc(Nc2cnn(C3CCCOC3)c2C)ncc1C(F)(F)F (stereo not drawn) [Example 231, N4-methyl-N2-(5-methyl-1-(tetrahydro-2H-pyran-3-yl)-1H-pyrazol-4-yl)-5-(trifluoromethyl) pyrimidine-2,4-diamine]
9.6 nM | Cc1c(Nc2ncc(C(F)(F)F)c(NCC3CCOCC3)n2)cnn1C [Example 232, N2-(1,5-dimethyl-1H-pyrazol-4-yl)-N4-((tetrahydro-2H-pyran-4-yl)methyl)-5-(trifluoromethyl) pyrimidine-2,4-diamine]
61 nM | CNc1nc(Nc2cn([C@@H]3CCN(C)C3)nc2C)ncc1C(F)(F)F [Example 233, (R)-N4-methyl-N2-(3-methyl-1-(1-methylpyrrolidin-3-yl)-1H-pyrazol-4-yl)-5-(trifluoromethyl) pyrimidine-2,4-diamine]
3.1 nM | CCNc1nc(Nc2cnn(CC(C)(C)O)c2Cl)ncc1C(F)(F)F [Example 234, 1-(5-chloro-4-(4-(ethylamino)-5-(trifluoromethyl)pyrimidin-2-ylamino)-1H-pyrazol-1-yl)-2-methylpropan-2-ol]
5.1 nM | CNc1nc(Nc2cn(CC(C)(C)O)nc2C2CC2)ncc1C(F)(F)F [Example 235, 1-(3-cyclopropyl-4-(4-(methylamino)-5-(trifluoromethyl)pyrimidin-2-ylamino)-1H-pyrazol-1-yl)-2-methylpropan-2-ol]

More lines, now with the values behind:

Structure (SMILES) | Ki
CNc1nc(Nc2cn([C@H](C)COC)nc2C)ncc1C(F)(F)F [Example 200, (R)-N2-(1-(1-methoxypropan-2-yl)-3-methyl-1H-pyrazol-4-yl)-N4-methyl-5-(trifluoromethyl) pyrimidine-2,4-diamine] | 12.8 nM
CCNc1nc(Nc2cn(CC(C)(C)O)nc2C(C)(C)C)ncc1C(F)(F)F [Example 201, 1-(3-tert-butyl-4-(4-(ethylamino)-5-(trifluoromethyl)pyrimidin-2-ylamino)-1H-pyrazol-1-yl)-2-methylpropan-2-ol] | 420 nM
CNc1nc(Nc2cn(C3CN(CC(F)(F)F)C3)nc2C)ncc1C(F)(F)F [Example 202, N4-methyl-N2-(3-methyl-1-(1-(2,2,2-trifluoroethyl)azetidin-3-yl)-1H-pyrazol-4-yl)-5-(trifluoromethyl) pyrimidine-2,4-diamine] | 34 nM
CNc1nc(Nc2cnn(C(C)(C)COC)c2C)ncc1C(F)(F)F [Example 203, N2-(1-(1-methoxy-2-methylpropan-2-yl)-5-methyl-1H-pyrazol-4-yl)-N4-methyl-5-(trifluoromethyl) pyrimidine-2,4-diamine] | 42 nM
CNc1nc(Nc2cn([C@@H]3CCN(C4COC4)C3)nc2C)ncc1C(F)(F)F [Example 204, (R)-N4-methyl-N2-(3-methyl-1-(1-(oxetan-3-yl)pyrrolidin-3-yl)-1H-pyrazol-4-yl)-5-(trifluoromethyl) pyrimidine-2,4-diamine] | 29 nM
CNc1nc(Nc2cnn([C@H](C)COC)c2C)ncc1C(F)(F)F [Example 205, (R)-N2-(1-(1-methoxypropan-2-yl)-5-methyl-1H-pyrazol-4-yl)-N4-methyl-5-(trifluoromethyl) pyrimidine-2,4-diamine] | 19 nM
CNc1nc(Nc2[nH]ncc2C)ncc1C(F)(F)F [Example 206, N4-methyl-N2-(4-methyl-1H-pyrazol-5-yl)-5-(trifluoromethyl) pyrimidine-2,4-diamine] | 232 nM
CCNc1nc(Nc2cnn(C3CCN(C)CC3)c2C)ncc1C(F)(F)F [Example 207, N4-ethyl-N2-(5-methyl-1-(1-methylpiperidin-4-yl)-1H-pyrazol-4-yl)-5-(trifluoromethyl) pyrimidine-2,4-diamine] | 2.6 nM
CCNc1nc(Nc2cn(C3CCN(C)CC3)nc2C)ncc1C(F)(F)F [Example 208, N4-ethyl-N2-(3-methyl-1-(1-methylpiperidin-4-yl)-1H-pyrazol-4-yl)-5-(trifluoromethyl) pyrimidine-2,4-diamine] | 10.2 nM
CNc1nc(Nc2cn(C3CCN(C)CC3)nc2C)ncc1C(F)(F)F [Example 209, N4-methyl-N2-(3-methyl-1-(1-methylpiperidin-4-yl)-1H-pyrazol-4-yl)-5-(trifluoromethyl) pyrimidine-2,4-diamine] | 41 nM
CNc1nc(Nc2cnn(C3CCN(C)CC3)c2C)ncc1C(F)(F)F [Example 210, N4-methyl-N2-(5-methyl-1-(1-methylpiperidin-4-yl)-1H-pyrazol-4-yl)-5-(trifluoromethyl) pyrimidine-2,4-diamine] | 7.1 nM
CNc1nc(Nc2cnn([C@@H]3CCN(C4COC4)C3)c2C)ncc1C(F)(F)F [Example 211, (R)-N4-methyl-N2-(5-methyl-1-(1-(oxetan-3-yl)pyrrolidin-3-yl)-1H-pyrazol-4-yl)-5-(trifluoromethyl) pyrimidine-2,4-diamine] | 3.3 nM
CNc1nc(Nc2cnn(Cc3ccccn3)c2C)ncc1C(F)(F)F [Example 212, N4-methyl-N2-(5-methyl-1-(pyridin-2-ylmethyl)-1H-pyrazol-4-yl)-5-(trifluoromethyl) pyrimidine-2,4-diamine] | 2.9 nM
CNc1nc(Nc2cn(Cc3ccccn3)nc2C)ncc1C(F)(F)F [Example 213, N4-methyl-N2-(3-methyl-1-(pyridin-2-ylmethyl)-1H-pyrazol-4-yl)-5-(trifluoromethyl) pyrimidine-2,4-diamine] | 2.9 nM
CNc1nc(Nc2cn(C3CN(C(C)C)C3)nc2C)ncc1C(F)(F)F [Example 214, N2-(1-(1-isopropylazetidin-3-yl)-3-methyl-1H-pyrazol-4-yl)-N4-methyl-5-(trifluoromethyl) pyrimidine-2,4-diamine] | 64 nM
CNc1nc(Nc2cnn(C)c2C#N)ncc1C(F)(F)F [Example 215, 1-methyl-4-(4-(methylamino)-5-(trifluoromethyl)pyrimidin-2-ylamino)-1H-pyrazole-5-carbonitrile] | 3.2 nM
CCNc1nc(Nc2cn(S(=O)(=O)C(C)C)nc2C)ncc1C(F)(F)F [Example 216, N4-ethyl-N2-(1-(isopropylsulfonyl)-3-methyl-1H-pyrazol-4-yl)-5-(trifluoromethyl) pyrimidine-2,4-diamine] | 3.9 nM
CNc1nc(Nc2cn(S(=O)(=O)C(C)C)nc2C)ncc1C(F)(F)F [Example 217, N2-(1-(isopropylsulfonyl)-3-methyl-1H-pyrazol-4-yl)-N4-methyl-5-(trifluoromethyl) pyrimidine-2,4-diamine] | 9.9 nM

Source: US8815882B2, “Pyrazole aminopyrimidine derivatives as LRRK2 modulators” (Genentech, Inc., priority 2010, dated 2014)
